The source made the active and inactive calls.
What was measured:
[1] = viability loss in HEK293 cells – cell-based, plate reader, cherry-picked samples, cytotoxicity control, dose response (AID 743446); type: functional
[2] = NIH3T3 cell viability loss – ATP luminescence, mouse fibroblasts, counter-screen, dose response (AID 2010); type: functional, cell-based;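 further: cells exposed to compound for about 90 hours before reading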
[3] = Trypanosoma cruzi growth suppression in host cells – NIH3T3 host cells, beta-gal luminescence, confirmation (AID 2044); type: functional, cell-based;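 further: intracellular parasites grown in NIH/3T3 mouse fibroblasts as host cells; luminescent beta-galactosidase reporter signal from transgenic T. cruzi replicating inside host cells; inhibitors lower the luminescence signal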
[4] = blockade of melanocortin 4 receptor signaling – cell-based, plate reader, cherry pick, counter-screen for LGR2 antagonist project, dose response (AID 743444); type: functional;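 further: transfected HEK 293 cells stimulated with alpha-MSH peptide; potency of inhibitors of the alpha-MSH evoked signal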
Beta-galactosidase = Beta-galactosidase (Escherichia coli, UniProt Q8VNN2); type: functional
Beta-galactosidase, sequence (Q8VNN2 whole entry): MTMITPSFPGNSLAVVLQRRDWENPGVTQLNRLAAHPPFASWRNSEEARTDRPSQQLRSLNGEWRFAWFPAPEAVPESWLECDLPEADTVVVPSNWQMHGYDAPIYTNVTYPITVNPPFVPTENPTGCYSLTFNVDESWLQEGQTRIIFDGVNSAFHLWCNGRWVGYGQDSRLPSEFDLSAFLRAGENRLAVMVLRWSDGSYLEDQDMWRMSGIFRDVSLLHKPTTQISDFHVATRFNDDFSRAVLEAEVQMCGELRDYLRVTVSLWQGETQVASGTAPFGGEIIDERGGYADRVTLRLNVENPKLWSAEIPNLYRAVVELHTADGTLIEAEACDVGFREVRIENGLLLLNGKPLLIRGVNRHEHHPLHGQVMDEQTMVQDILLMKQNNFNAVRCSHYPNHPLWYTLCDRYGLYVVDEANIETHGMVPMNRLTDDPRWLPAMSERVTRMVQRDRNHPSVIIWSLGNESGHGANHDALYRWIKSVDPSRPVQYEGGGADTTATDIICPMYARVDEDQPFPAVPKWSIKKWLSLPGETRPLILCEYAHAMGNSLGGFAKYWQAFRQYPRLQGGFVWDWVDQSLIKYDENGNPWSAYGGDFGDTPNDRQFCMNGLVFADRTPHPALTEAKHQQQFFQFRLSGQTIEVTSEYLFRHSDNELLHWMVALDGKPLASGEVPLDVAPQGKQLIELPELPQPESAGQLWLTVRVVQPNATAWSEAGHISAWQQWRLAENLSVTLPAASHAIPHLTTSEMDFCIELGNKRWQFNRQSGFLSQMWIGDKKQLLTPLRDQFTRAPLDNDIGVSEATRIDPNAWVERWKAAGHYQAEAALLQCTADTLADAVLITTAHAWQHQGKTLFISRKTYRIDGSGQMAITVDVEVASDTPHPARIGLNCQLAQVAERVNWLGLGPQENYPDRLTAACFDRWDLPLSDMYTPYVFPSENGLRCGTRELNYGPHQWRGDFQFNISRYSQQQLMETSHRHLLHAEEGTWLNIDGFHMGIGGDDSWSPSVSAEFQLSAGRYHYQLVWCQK

[5] = A549 cell cytotoxicity, dose response, cytotoxicity control, plate reader, cherry-pick, antagonist series (AID 743412); type: functional, cell-based
[6] = Luminescence Cell-Based Dose Response HTS to Identify Inhibitors of 5'UTR Stem-Loop Driven Prion Protein mRNA Translation in H4 Neuroglioblastoma Cells. [Related pubchem assays: 1827 (Project Summary), 1813 (Primary HTS)]; type: functional
[7] = molecular target: T1, Kappa-type opioid receptor (Homo sapiens, UniProt P41145); type: functional
T1 sequence (P41145 whole entry): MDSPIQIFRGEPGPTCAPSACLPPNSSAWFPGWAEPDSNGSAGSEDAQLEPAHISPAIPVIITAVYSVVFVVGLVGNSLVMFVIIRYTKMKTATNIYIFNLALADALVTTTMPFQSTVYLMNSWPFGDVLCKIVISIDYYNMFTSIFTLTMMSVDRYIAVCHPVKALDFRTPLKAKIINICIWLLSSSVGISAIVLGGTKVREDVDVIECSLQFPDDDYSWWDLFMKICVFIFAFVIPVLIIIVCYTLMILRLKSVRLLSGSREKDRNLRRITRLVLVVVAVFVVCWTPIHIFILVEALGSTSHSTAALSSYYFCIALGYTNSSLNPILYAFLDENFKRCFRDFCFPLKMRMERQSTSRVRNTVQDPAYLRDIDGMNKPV

A-375 [8] = test: proliferation inhibition in MITF-low A375 cells – cell-based, cherry-pick samples, set 2, counter-screen for MITF modulator project, dose response (AID 540335); type: functional; details: Homo sapiens
A-375 [9] = test: MITF: Counter assay: A375 proliferation Measured in Cell-Based System Using Plate Reader - 2084-03_Inhibitor_Dose_DryPowder_Activity. [Related pubchem assays (depositor defined):AID488944]; type: functional; details: Homo sapiens
[10] = molecular target: T2, Delta-type opioid receptor (Homo sapiens, UniProt P41143); test: HTS Image-Based Screen for Antagonists of the DOR Receptor. [Related pubchem assays (depositor defined):AID1777, AID1785, AID1786, AID2133]; type: functional
T2 sequence (P41143 whole entry): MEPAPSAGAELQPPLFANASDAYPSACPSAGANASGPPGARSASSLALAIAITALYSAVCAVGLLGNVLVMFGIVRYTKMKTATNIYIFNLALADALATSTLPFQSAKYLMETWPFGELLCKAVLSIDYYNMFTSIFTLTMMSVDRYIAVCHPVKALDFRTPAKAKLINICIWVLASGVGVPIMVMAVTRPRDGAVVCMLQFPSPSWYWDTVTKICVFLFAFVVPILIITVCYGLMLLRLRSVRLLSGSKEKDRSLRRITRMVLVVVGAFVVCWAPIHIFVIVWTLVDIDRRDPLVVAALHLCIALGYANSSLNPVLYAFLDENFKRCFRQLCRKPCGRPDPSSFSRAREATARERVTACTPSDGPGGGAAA

Mu-type opioid receptor [11] = molecular target: T3, Mu-type opioid receptor (Homo sapiens, UniProt P35372); test: HTS Image-Based Screen for Agonists of the MOR Receptor. [Related pubchem assays (depositor defined):AID1777, AID1785, AID1786, AID2133]; type: functional
T3 sequence (P35372 whole entry): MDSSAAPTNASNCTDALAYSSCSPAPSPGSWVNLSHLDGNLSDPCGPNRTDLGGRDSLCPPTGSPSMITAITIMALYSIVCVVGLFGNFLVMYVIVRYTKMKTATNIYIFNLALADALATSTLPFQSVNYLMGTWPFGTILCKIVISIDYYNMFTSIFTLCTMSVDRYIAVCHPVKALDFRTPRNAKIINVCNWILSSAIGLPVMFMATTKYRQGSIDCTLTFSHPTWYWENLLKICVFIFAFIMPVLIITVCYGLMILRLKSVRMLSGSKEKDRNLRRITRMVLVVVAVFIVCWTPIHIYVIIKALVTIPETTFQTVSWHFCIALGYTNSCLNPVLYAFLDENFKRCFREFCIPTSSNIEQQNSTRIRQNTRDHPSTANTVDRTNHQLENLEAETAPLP

[12] = alpha-synuclein stem-loop luciferase translation blockers – H4 neuroglioma cells, luminescence, confirmation (AID 1988); type: functional, cell-based
[13] = molecular target: T1, Kappa-type opioid receptor; type: functional; remark: listed apart in the source
[14] = molecular target: T4, Sphingosine 1-phosphate receptor 4 (Homo sapiens, UniProt O95977); test: Fluorescence dose response cell-based high throughput screening assay for antagonists of the Sphingosine 1-Phosphate Receptor 4 (S1P4). [Related pubchem assays: 1524 (Confirmation in triplicates.), 1510 (Primary screen.)]; type: functional
T4 sequence (O95977 whole entry): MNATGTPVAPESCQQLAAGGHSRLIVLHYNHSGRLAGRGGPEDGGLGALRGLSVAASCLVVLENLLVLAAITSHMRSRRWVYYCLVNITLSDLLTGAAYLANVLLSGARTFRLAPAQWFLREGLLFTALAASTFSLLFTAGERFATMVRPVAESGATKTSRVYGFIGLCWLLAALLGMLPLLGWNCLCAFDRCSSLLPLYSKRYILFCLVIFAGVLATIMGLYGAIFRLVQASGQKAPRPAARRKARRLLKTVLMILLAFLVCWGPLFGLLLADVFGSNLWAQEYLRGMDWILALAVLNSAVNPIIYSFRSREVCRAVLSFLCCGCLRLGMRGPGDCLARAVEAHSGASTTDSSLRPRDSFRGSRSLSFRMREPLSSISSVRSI

[15] = molecular target: T2, Delta-type opioid receptor; test: HTS Image-Based Screen for Agonists of the DOR Receptor. [Related pubchem assays (depositor defined):AID1777, AID1786, AID2133]; type: functional
[16] = toxicity toward HepG2 liver cells – cell-based, plate reader, cherry-pick, antagonist series, cytotoxicity control, dose response (AID 743416); type: functional
[17] = blockers of bursicon-stimulated LGR2 cAMP reporter – cell-based, HEK293, CRE-luciferase reporter, cherry pick, set 2, dose response (AID 743343); type: functional;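 further: transfected cells were stimulated with diluted bursicon conditioned medium after compound addition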
[18] = molecular target: T5, Sphingosine 1-phosphate receptor 1 (Homo sapiens, UniProt P21453); type: functional
T5 sequence (P21453 whole entry): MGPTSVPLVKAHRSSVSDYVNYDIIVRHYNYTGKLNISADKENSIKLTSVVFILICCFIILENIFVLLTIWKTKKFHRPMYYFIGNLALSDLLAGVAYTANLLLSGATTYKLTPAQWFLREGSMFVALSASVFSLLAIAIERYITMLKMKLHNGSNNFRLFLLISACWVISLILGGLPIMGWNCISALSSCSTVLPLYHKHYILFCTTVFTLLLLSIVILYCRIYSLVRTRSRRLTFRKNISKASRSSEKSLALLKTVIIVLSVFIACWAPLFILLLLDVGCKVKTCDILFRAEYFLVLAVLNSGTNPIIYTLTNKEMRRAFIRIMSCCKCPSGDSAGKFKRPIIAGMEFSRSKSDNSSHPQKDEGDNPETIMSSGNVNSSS

[19] = molecular target: T6, Microphthalmia-associated transcription factor (Homo sapiens, UniProt O75030); test: reducers of TRPM1 reporter luminescence, concentration series – cell-based, SK-MEL-5, cherry-picked, set 3, MITF inhibitor project, dose response (AID 493073); type: functional;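 further: SK-MEL-5 melanoma cells with luciferase driven by the MITF target TRPM1 promoter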
T6 sequence (O75030 whole entry): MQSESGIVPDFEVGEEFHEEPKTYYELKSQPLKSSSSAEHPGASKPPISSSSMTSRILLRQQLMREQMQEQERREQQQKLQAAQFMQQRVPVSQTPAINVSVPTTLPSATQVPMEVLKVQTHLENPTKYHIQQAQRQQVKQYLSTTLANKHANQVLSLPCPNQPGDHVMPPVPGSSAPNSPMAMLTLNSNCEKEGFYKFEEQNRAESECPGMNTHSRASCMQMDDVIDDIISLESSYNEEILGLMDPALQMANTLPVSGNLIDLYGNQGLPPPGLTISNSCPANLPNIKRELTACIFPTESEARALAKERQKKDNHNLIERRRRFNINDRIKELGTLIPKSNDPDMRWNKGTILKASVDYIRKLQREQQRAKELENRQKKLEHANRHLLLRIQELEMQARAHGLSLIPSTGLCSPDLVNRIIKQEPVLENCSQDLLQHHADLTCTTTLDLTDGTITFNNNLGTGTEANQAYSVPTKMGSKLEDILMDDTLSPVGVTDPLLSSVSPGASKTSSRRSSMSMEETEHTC

[20] = luciferase reporter signal suppression in cells – H4 neuroglioma cells, luminescence, dose response (AID 1990); type: functional, cell-based
[21] = molecular target: T4, Sphingosine 1-phosphate receptor 4; test: potency of S1P4 blockers – cell-based, fluorescence, synthesized analogues, late-stage follow-up (AID 2346); type: functional
[22] = molecular target: T5, Sphingosine 1-phosphate receptor 1; test: Late stage counterscreen assay for S1P4 antagonists: Fluorescence dose response cell-based screening assay for antagonists of the Sphingosine 1-Phosphate Receptor 1 (S1P1). [Related pubchem assays (depositor defined):AID1510, AID1524, AID1692, AID1853, AID2332, AID489009, AID489017]; type: functional
[23] = molecular target: Sphingosine 1-phosphate receptor 3 (Homo sapiens, UniProt Q99500); test: Late stage counterscreen assay for S1P4 antagonists: Fluorescence dose response cell-based screening assay for antagonists of the Sphingosine 1-Phosphate Receptor 3 (S1P3). [Related pubchem assays (depositor defined):AID1510, AID1524, AID1692, AID1853, AID2332, AID489009, AID489017]; type: functional
Sphingosine 1-phosphate receptor 3, sequence (Q99500 whole entry): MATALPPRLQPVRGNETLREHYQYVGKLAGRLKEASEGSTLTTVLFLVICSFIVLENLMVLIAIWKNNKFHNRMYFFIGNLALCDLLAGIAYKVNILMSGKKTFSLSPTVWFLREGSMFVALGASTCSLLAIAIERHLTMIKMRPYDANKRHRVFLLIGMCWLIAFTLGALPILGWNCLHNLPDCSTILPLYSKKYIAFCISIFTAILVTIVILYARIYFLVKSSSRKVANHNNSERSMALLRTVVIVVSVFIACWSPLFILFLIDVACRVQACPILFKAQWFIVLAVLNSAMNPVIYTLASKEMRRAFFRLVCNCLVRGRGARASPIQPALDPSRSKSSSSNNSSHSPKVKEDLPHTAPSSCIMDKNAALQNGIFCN

[24] = molecular target: Sphingosine 1-phosphate receptor 2 (Homo sapiens, UniProt O95136); test: Late stage counterscreen assay for S1P4 antagonists: Fluorescence dose response cell-based screening assay for antagonists of the Sphingosine 1-Phosphate Receptor 2 (S1P2). [Related pubchem assays (depositor defined):AID1510, AID1524, AID1692, AID1853, AID2332, AID489009, AID489017]; type: functional
Sphingosine 1-phosphate receptor 2, sequence (O95136 whole entry): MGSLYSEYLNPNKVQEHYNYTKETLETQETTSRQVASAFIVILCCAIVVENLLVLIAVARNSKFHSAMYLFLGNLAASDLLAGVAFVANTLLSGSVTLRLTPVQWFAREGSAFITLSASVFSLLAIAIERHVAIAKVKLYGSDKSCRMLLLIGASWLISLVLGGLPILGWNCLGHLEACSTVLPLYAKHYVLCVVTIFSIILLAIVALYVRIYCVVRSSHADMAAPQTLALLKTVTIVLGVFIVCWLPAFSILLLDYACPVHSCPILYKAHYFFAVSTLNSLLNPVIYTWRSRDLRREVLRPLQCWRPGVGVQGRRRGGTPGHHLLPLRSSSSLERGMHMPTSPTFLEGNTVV

[25] = molecular target: Sphingosine 1-phosphate receptor 5 (Homo sapiens, UniProt Q9H228); test: Late stage counterscreen assay for S1P4 antagonists: Fluorescence dose response cell-based screening assay for antagonists of the Sphingosine 1-Phosphate Receptor 5 (S1P5). [Related pubchem assays (depositor defined):AID1510, AID1524, AID1692, AID1853, AID2332, AID489009, AID489017]; type: functional
[26] = molecular target: T1, Kappa-type opioid receptor; test: SAR analysis of small molecule agonists of the kappa opioid receptor via a luminescent beta-arrestin assay - Set 3. [Related pubchem assays (depositor defined):AID1777, AID1785, AID1786, AID1966, AID2133, AID2136, AID2284, AID2500]; type: functional
[27] = molecular target: T2, Delta-type opioid receptor; test: SAR Analysis of Agonists of the DOR Receptor using an Image-Based Assay - Set 3. [Related pubchem assays (depositor defined):AID1777, AID1786]; type: functional
Mu-type opioid receptor [28] = molecular target: T3, Mu-type opioid receptor; test: SAR Analysis of Antagonists of the MOR Receptor using an Image-Based Assay - Set 2. [Related pubchem assays (depositor defined):AID1777, AID1785, AID1786, AID1966, AID2133, AID2136, AID2284, AID2285, AID2420]; type: functional
[29] = molecular target: T1, Kappa-type opioid receptor; test: kappa opioid receptor activation by imaging – image-based, set 3, SAR follow-up (AID 488833); type: functional
Mu-type opioid receptor [30] = molecular target: T3, Mu-type opioid receptor; test: SAR Analysis of Agonists of the MOR Receptor using an Image-Based Assay - Set 3. [Related pubchem assays (depositor defined):AID1777, AID1785, AID1786, AID1966, AID2133, AID2136, AID2284, AID2285, AID2352]; type: functional
Mu-type opioid receptor [31] = molecular target: T3, Mu-type opioid receptor; test: SAR Analysis of Agonists of the MOR Receptor using an Image-Based Assay - Set 2. [Related pubchem assays (depositor defined):AID1777, AID1785, AID1786, AID1966, AID2133, AID2136, AID2284, AID2285, AID2352]; type: functional
[32] = molecular target: T1, Kappa-type opioid receptor; test: SAR analysis of Antagonists of the Kappa Opioid Receptor (KOR) using an Image-Based Assay - Set 2. [Related pubchem assays (depositor defined):AID1777, AID1785, AID1786, AID1966, AID2133, AID2136, AID2284, AID2285, AID2348]; type: functional
[33] = molecular target: T2, Delta-type opioid receptor; test: SAR Analysis of Antagonists of the DOR Receptor using an Image-Based Assay - Set 2. [Related pubchem assays (depositor defined):AID1777, AID1785, AID1786, AID1966, AID2133, AID2136, AID2284, AID2285, AID2357]; type: functional
[34] = molecular target: T2, Delta-type opioid receptor; test: SAR Analysis of Agonists of the DOR Receptor using an Image-Based Assay - Set 2. [Related pubchem assays (depositor defined):AID1777, AID1785, AID1786, AID1966, AID2133, AID2136, AID2284, AID2285, AID2370]; type: functional
[35] = molecular target: Nuclear receptor ROR-alpha (Homo sapiens, UniProt P35398); test: LXR, FXR and VP16 reporter activity, cell-based, luciferase reporter, ROR modulator project, late-stage follow-up, panel member RORA (AID 2117)
Nuclear receptor ROR-alpha, sequence (P35398 whole entry): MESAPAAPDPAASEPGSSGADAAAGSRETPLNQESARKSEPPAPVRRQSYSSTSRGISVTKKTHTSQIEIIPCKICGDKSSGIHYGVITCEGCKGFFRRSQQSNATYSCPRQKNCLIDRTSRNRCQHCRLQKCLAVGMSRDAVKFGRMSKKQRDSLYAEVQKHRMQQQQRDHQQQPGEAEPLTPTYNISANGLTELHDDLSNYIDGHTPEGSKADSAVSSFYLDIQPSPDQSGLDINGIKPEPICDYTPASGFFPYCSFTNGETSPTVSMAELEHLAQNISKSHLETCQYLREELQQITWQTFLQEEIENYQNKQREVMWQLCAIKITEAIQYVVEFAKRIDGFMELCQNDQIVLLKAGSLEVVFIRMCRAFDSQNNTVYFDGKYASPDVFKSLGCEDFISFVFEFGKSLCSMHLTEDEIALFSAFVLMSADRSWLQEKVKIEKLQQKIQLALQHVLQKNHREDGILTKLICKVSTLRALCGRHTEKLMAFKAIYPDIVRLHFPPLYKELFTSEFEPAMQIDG

[36] = molecular target: Nuclear receptor ROR-gamma (Homo sapiens, UniProt P51449); test: LXR, FXR and VP16 reporter activity, cell-based, luciferase reporter, ROR modulator project, late-stage follow-up, panel member RORG (AID 2117)
Nuclear receptor ROR-gamma, sequence (P51449 whole entry): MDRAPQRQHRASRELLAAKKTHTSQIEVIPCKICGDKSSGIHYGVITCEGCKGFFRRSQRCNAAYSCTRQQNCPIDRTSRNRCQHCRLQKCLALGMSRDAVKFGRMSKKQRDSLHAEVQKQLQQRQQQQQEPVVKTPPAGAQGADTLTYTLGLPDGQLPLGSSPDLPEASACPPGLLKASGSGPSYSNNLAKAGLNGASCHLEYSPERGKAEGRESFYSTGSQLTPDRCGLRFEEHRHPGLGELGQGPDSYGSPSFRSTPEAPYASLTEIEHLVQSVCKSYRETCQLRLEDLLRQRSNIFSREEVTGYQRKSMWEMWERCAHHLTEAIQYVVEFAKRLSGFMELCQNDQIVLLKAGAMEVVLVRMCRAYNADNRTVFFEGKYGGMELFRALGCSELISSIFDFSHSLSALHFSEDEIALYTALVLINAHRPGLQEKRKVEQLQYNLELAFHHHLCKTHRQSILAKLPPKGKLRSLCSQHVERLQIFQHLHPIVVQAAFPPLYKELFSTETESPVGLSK

Exodeoxyribonuclease V = Exodeoxyribonuclease V (Escherichia coli (strain K12), UniProt P04993+P07648+P08394); test: RecBCD inhibition via phage-restricted bacterial growth – absorbance, V66 E. coli, mutant T4 phage, counter-screen for AddAB inhibitor project, dose response (AID 492957); type: functional, cell-based, Escherichia coli str. K-12 substr. MG1655
[37] = Counterscreen for AddAB inhibitors: absorbance-based bacterial cell-based high throughput dose response assay for inhibitors of bacterial viability. [Related pubchem assays (depositor defined):AID435030, AID449728, AID449731, AID488942, AID488955, AID488956]; type: functional
[38] = molecular target: G-protein coupled receptor 55 (Homo sapiens, UniProt Q9Y2T6); test: inhibition of LPI-stimulated GPR55 beta-arrestin translocation – imaging, U2OS, beta-arrestin-GFP, LPI agonist, primary screen (AID 2013); type: functional;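 further: antagonist potency measured as reduced agonist-driven arrestin aggregation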
G-protein coupled receptor 55, sequence (Q9Y2T6 whole entry): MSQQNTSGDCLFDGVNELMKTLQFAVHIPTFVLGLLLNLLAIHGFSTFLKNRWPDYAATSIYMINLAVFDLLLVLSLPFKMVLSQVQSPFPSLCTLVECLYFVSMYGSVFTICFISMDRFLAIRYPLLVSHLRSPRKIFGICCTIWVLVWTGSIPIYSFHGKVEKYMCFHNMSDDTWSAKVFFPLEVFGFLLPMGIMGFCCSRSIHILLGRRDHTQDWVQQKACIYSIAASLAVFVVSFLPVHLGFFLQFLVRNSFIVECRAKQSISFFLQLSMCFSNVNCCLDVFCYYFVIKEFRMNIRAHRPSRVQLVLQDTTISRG

## O=C(Cn1ncc(Cl)c(Cl)c1=O)N1CCc2ccccc21
[1]
  AC50: 4.3 µM (active)
[2]
  EC50: 4.51 µM (active)
[3]
  EC50: 2.46 µM (active)
[4]
  AC50: 8.77 µM (active)
Beta-galactosidase
  EC50: > 31.5 µM (inactive)
[5]
  AC50: 7.68 µM (active)
[6]
  EC50: 7.57 µM (active)
[7]
  IC50: 5.51 µM (active)
A-375 [8]
  AC50: > 35 µM (active)
A-375 [9]
  AC50: > 35 µM (active)
[10]
  IC50: 14.7 µM (inactive)
Mu-type opioid receptor [11]
  EC50: > 32 µM (inactive)
[12]
  EC50: > 120 µM (not active)
[13]
  IC50: 2.85 µM
[14]
  IC50: 1.64 µM (active)
[15]
  EC50: > 32 µM (inactive)
[16]
  AC50: 16.3 µM (active)
[17]
  AC50: 7.11 µM (active)
[18]
  IC50: 5.51 µM (active)
[19]
  AC50: 6.1 µM (active)
[20]
  EC50: 8.12 µM (active)

## Cc1ccc(NC(=O)c2ccc(-c3cc(Cl)ccc3Cl)o2)c(C)c1
[21]
  IC50: 0.182 µM (active)
[22]
  IC50: > 25 µM (inactive)
[23]
  IC50: > 25 µM (inactive)
[24]
  IC50: > 25 µM (inactive)
[25]
  IC50: > 25 µM (inactive)

## Clc1ccc(CSc2nnc(-c3ccccn3)n2Cc2cccs2)cc1Cl
[26]
  EC50: 0.454 µM (active)
[27]
  EC50: > 64 µM (inactive)
Mu-type opioid receptor [28]
  IC50: > 32 µM (inactive)
[29]
  EC50: 0.349 µM (active)
Mu-type opioid receptor [30]
  EC50: > 32 µM (inactive)
Mu-type opioid receptor [31]
  EC50: > 32 µM (inactive)
[32]
  IC50: > 32 µM (inactive)
[33]
  IC50: > 32 µM (inactive)
[34]
  EC50: > 32 µM (inactive)

## CC(C)(C)c1ccc(S(=O)(=O)Nc2ccc(C(O)(C(F)(F)F)C(F)(F)F)cc2)cc1
[35]
  IC50: 2.47 µM (active)
[36]
  IC50: > 20 µM (inactive)

## O=[N+]([O-])c1c(O)oc2ccccc2/c1=N\C(c1ccccc1)c1ccccc1
Exodeoxyribonuclease V
  IC50: > 119 µM (inactive)
[37]
  IC50: > 119 µM (inactive)
[38]
  IC50: 2.79 µM (active)

— ChEMBL document CHEMBL1201862, “PubChem BioAssay data set” (2004)
